{
  "source": "patent US6784155B1",
  "about": "“Inhibitor and stimulator of stem cell proliferation and uses thereof” (Wellstat Therapeutics Corporation, priority 1996, dated 2004)",
  "key": {"[1]": {"system": "CFU-MIX", "test": "Stimulation of cycling of quiescent murine stem cells, CFU-MIX cycling assay in vitro", "format": "cell-based, mouse", "conditions": "Table 42, untreated B6D2F1 bone marrow, 1 μg/ml", "experimental": "Microgram per milliliter doses of hemoglobin chains, myoglobin and peptides were assayed for stimulation of quiescent stem cells. Bone marrow was obtained from untreated B6D2F1 tested in the CFU-MIX cycling assay as in Example 24. Stem cells isolated from untreated B6D2F1 mice are normally slowly cycling unless stimulated (e.g. by testosterone propionate (cf. Example 1) or chemotherapy such as 5FU (cf. Example 4)) to enter into cycle."}, "[2]": {"system": "CFU-MIX", "test": "CFU-MIX cycling assay in vitro (Ara C kill)", "format": "cell-based, mouse", "experimental": "A similar assay can be performed in vitro, using the cycling status of CFU-MIX instead of CFU-S. The assay is performed as described above for the CFU-S assay except that cytosine arabinoside (Ara C, 30 micrograms/ml) is used as the cycle-specific toxic agent instead of high dose tritiated thymidine (see B. I. Lord in Haemopoiesis—A Practical Approach, N. G. Testa and G. Molineux (Eds.), IRL Press 1993; Pragnell et al. in Culture of Hematopoietic Cells, R. I. Freshney, I. B. Pragnell and M. G. Freshney (Eds.), Wiley Liss 1994) and a mouse strain with high endogenous cycling rates (Balb/c) is used instead of testosterone-treated BDFI mice.\n(§1) 24 hours later (Day 1), varying doses of peptide 43-55 or vehicle were injected i.v. Bone marrow was harvested on Day 2 and the […] cycling assay conducted as in Example 14. Specifically, mice were sacrificed and single cell bone marrow suspensions prepared from the femurs. The cells were washed once and the concentration adjusted to 5×10^6 cells/ml in Fischer medium. For each test condition, one milliliter of cells was added to each of two polypropylene tubes. The tubes were incubated at 37° C. for 3 hours without (“Control”) or with (“Experimental”) the appropriate concentration of test substance. At the end of the incubation, 30 μg/ml of cytosine arabinoside (“Ara C” (Sigma)) was added to half of the tubes and the same volume of Fischer's medium was added to the others. The tubes were incubated for a further 1 hour at 37° C., after which they were placed on ice and washed twice with cold Fischer medium.\n(§2) The cells were readjusted to 5×10^4-10^6/ml in Fischer's medium and 0.5 ml of cell suspension added to 5 ml of Methocult M3430 methylcellulose medium (Stem Cell Technologies, Vancouver, British Columbia). The mixture was vigorously mixed with a vortex and 1 ml was dispensed into each of five 35 mm dishes. The 35 mm dishes were in turn placed in a covered 150 mm dish with one open 35 mm dish containing sterile water. CFU-MIX colonies were counted with the use of an inverted microscope after 7 days of incubation at 37° C.\nDifferences in colony number between the tubes treated with medium versus the tubes treated with Ara C represent the percentage of cells in cycle under that condition according to the formula:\na=Number of CFU-MIX from tube incubated with medium alone\nb=Number of CFU-MIX from tube incubated with Ara C"}, "[3]": {"system": "CFU-GEMM", "test": "CFU-GEMM cycling assay, human umbilical cord blood cells", "format": "cell-based", "conditions": "Table 32, cord blood mononuclear cells", "experimental": "In order to investigate the ability of purified INPROL from porcine bone marrow to affect cycling on human progenitors, umbilical cord blood cells were obtained. Either the total mononuclear cell fraction obtained after separation on Ficoll or the CD34^+ fraction obtained after fractionation on anti-CD34 affinity columns (CellPro Inc.) was used. Cells were incubated for 48 hours in vitro in the presence of interleukin 3 (IL-3) and stem cell factor (SCF) (100 ng/ml each) in order to ensure that the early stem cells were in cycle. After this preincubation, cycling assays were conducted as described in Example 14 for the mouse except that CFU-GEMM (instead of CFU-MIX) were counted on Day 18 after plating.\nThe human cord blood CFU-GEMM cycling assay was conducted as in Example 19. Specifically, mononuclear cells were isolated from human umbilical cord blood cells and adjusted to 24×10^4 cells/ml in IMDM tissue culture medium supplemented with 10% FBS, 100 ng/ml kit ligand and 100 ng/ml human IL-3. The cells were incubated for 48 hours at 37° C.\nAfter incubation, cells were washed and resuspended in serun-free NDM at a concentration of 10^6 cells/ml. One ml of cells was added to each of two polypropylene tubes per condition and the cycling assay conducted as in Example 24 for mouse bone marrow. After the Ara C incubation cells were washed with cold NDM and adjusted to 10,000 to 20,000 cells per 0.5 ml IMDM and mixed with 5 ml Methocult H4433 (Stem Cell Technologies). Alternatively, Methocult H4435 methylcellulose medium (Stem Cell Technologies) was used in which case the cell concentration was adjusted to 2500-5000 cells per 0.5 ml IMDM. The cells were plated as in Example 24 and CFU-GEMM colonies scored on days 14-18."}, "[4]": {"system": "CFU-GEMM", "test": "CFU-GEMM cycling assay, mobilized human peripheral blood", "format": "cell-based", "experimental": "Peripheral blood was obtained from breast cancer patients undergoing peripheral stem cell mobilization with cyclophosphamide and G-CSF according to standard protocols. Red blood cells were removed with FicolU Hypaque (cells were diluted 1:1 with IMDM and 20 ml layered on top of 16 ml Ficoll and centrifuged at 800 g for 30 minutes; mononuclear cells were removed from the interphase and washed twice in IMDM). In one case mononuclear cells were stored frozen in liquid nitrogen before assay. The mononuclear cells were plated for the CFU-GEMM cycling assay as in Example 26 except that 2.5-5×10^5 cells were plated per dish."}, "[5]": {"system": "CFU-S", "test": "CFU-S proliferation assay, 3H-Thymidine suicide method (bone marrow incubated with test fractions)", "format": "cell-based, mouse", "conditions": "Table 8, bone marrow from testosterone treated mice", "experimental": "For the detection of stem cells proliferation the number of CFU-S in S-phase of the cell cycle was measured by the ^3H-Thymidine “suicide” method (Becker et al., Blood 26:296-308, 1965).\nImmature hematopoietic progenitors-Colony Forming Units in spleen (CFU-S)—can be detected in vivo by forming macroscopic colonies in the spleens of lethally irradiated mice, 8-12 days after the intravenous injection of hematopoietic cells (Till & McCulloch, 1961).\nFor the standard CFU-S proliferation assay the method of ^3H-Thymidine “suicide” is usually applied (Becker et al., 1965). The method is based on incorporation of radiolabelled Thymidine, (^3H-Thymidine) a precursor of DNA into cells during DNA synthesis. The CFU-S which are in S-phase of the cycle at the time of testing, are killed by the high radioactivity and therefore not able to form colonies in spleen.\nThe inhibitor testing can not be done with the bone marrow stem cell population from unstimulated animals, as far as the inhibitor only effects cycling CFU-S, which are as low as 7-10% of the total CFU-S population in the bone marrow of normal mice.\nTo stimulate CFU-S proliferation, phenylhydrazine (PHZ), or sublethal irradiation were used (Lord, 1976).\nThe TSP induced stimulation of CFU-S proliferation within 20-24 hours after injection and the effect could be seen for at least 7 days.\nThe procedure used for the screening of the fractions during purification of the Inhibitor was as follows:\nMice: BDF1 or CBF1 mice strains were used throughout all testing.\nDonor mice were treated with a 10 mg/100 g dose of TSP by intraperitoneal injection of 0.2 ml/mouse in order to induce 30-35% of the CFU-S into S-phase.\nTwenty-four hours later the bone marrow is taken from the femurs for the cell suspension preparation. […]\nRecipient spleens are harvested on day 9-12 and fixed in Tellesnitsky's solution; the colonies are scored by eye score. The percentage of cells in S-phase are calculated using the formula. […]"}, "[6]": {"system": "CFU-MIX", "test": "CFU-MIX cycling assay after in vivo injection into testosterone or 5FU treated mice", "set-up": "species or system mouse", "experimental": "In order to test the ability of purified porcine hemoglobin chains to act in vivo, BDF1 mice were injected with testosterone propionate as described in Example 1. Twenty four hours later, mice received 500 ng of either pINPROL, porcine hemoglobin alpha chain (purified from peripheral red blood cells as in FIG. 21), porcine beta chain (purified from peripheral red blood cells as in FIG. 21) or the equivalent volume of carrier intravenously. Forty eight hours later the bone marrow from each mouse was harvested and the CFU-MIX assay conducted as described in Example 14.\nTo assess the stem cell inhibitory activity of peptide 43-55 in vivo, B6D2 F1 mice were pre-treated with testosterone propionate as described in Example 1 or with 5FU. Specifically, testosterone propionate (100 mg/kg body weight) was injected i.p. on Day 0 into mice. Alternatively, mice were injected on Day 0 with 5FU ([…] body weight).\nas §1, §2\nDifferences in colony number between the tubes treated with medium versus the tubes treated with Ara C represent the percentage of cells in cycle under that condition according to the formula: […]"}, "[7]": {"conditions": "Table 9, bone marrow from Balb/c mice, 100 ng/ml"}, "[8]": {"conditions": "Table 10, testosterone-treated BDF1 mice, 500 ng intravenously (footnote: 100 ng/ml), marrow 48 hours later"}},
  "note": "No end group written: not given here.",
  "data": [
    {"compound": "DALTNAVAHVDDMPNALSA [Peptide 64-82, amino acids 64-82 of human alpha hemoglobin]", "values": [
      {"measurement": "% Kill", "setting": "[1]", "result": 25, "unit": "%"},
      {"measurement": "% Kill", "setting": "[2]; Table 18, 100 ng/ml", "result": 9, "unit": "%"},
      {"measurement": "% Kill", "setting": "[3]; 1 ng/ml", "result": 21, "unit": "%"},
      {"measurement": "% Kill", "setting": "[3]; 10 ng", "result": 20, "unit": "%"},
      {"measurement": "% Kill", "setting": "[3]; 100 ng/ml", "result": 39, "unit": "%"}
    ]},
    {"compound": "C[C@@H](NC(=O)[C@@H](N)Cc1ccc(O)cc1)C(=O)NCC(=O)N(C)[C@@H](Cc1ccccc1)C(=O)NCCO", "note": "[DAMGO, (D-Ala^2,N-Me-Phe^4,Gly-ol^5)-Enkephalin, reference compound]", "values": [
      {"measurement": "% Kill", "setting": "[2]; Table 26, Balb/c bone marrow, 10^−5M", "result": 15, "unit": "%"},
      {"measurement": "% Kill", "setting": "[2]; Table 26, Balb/c bone marrow, 10^−7M", "result": 0, "unit": "%"},
      {"measurement": "% Kill", "setting": "[2]; Table 26, Balb/c bone marrow, 10^−9M", "result": 38, "unit": "%"},
      {"measurement": "% Kill", "setting": "[4]; Table 35, Patient #2, 10^−7M", "result": 15, "unit": "%"},
      {"measurement": "% Kill", "setting": "[4]; Table 35, Patient #2, 10^−9M", "result": 0, "unit": "%"}
    ]},
    {"compound": "Hbg: C4 Reverse-phase purified porcine hemoglobin beta chain (derived from 2X crystallized pig hemoglobin)", "values": [
      {"measurement": "% Kill", "setting": "[5]; 40 ng/ml", "result": 7, "unit": "%"},
      {"measurement": "% Kill", "setting": "[5]; 200 ng/ml", "result": 25, "unit": "%"}
    ]},
    {"compound": "CN1CC[C@]23c4c5ccc(O)c4O[C@H]2[C@@H](O)C=C[C@H]3[C@H]1C5", "note": "[Morphine, morphine, reference compound]", "values": [
      {"measurement": "% Kill", "setting": "[2]; Table 25, Balb/c bone marrow, 10^−7M", "result": 10, "unit": "%"},
      {"measurement": "% Kill", "setting": "[2]; Table 25, Balb/c bone marrow, 10^−9M", "result": 15, "unit": "%"},
      {"measurement": "% Kill", "setting": "[2]; Table 25, Balb/c bone marrow, 10^−11M", "result": 32, "unit": "%"},
      {"measurement": "% Kill", "setting": "[4]; Table 35, Patient #2, 10^−7M", "result": 24, "unit": "%"},
      {"measurement": "% Kill", "setting": "[4]; Table 35, Patient #2, 10^−9M", "result": 0, "unit": "%"}
    ]},
    {"compound": "Porcine beta chain: porcine hemoglobin beta chain purified from peripheral red blood cells as in FIG. 21", "values": [
      {"measurement": "% Kill", "setting": "[2]; [7]", "result": "−14", "unit": "%"},
      {"measurement": "% Kill", "setting": "[6]; [8]", "result": "−5", "unit": "%"}
    ]},
    {"compound": "Human hemoglobin: human hemoglobin", "values": [
      {"measurement": "% Kill", "setting": "[6]; Table 14, testosterone-treated BDF1 mice, 500 ng/mouse", "result": "−31", "unit": "%"}
    ]},
    {"compound": "Porcine alpha chain: porcine hemoglobin alpha chain purified from peripheral red blood cells as in FIG. 21", "values": [
      {"measurement": "% Kill", "setting": "[2]; [7]", "result": "−4", "unit": "%"},
      {"measurement": "% Kill", "setting": "[6]; [8]", "result": 5, "unit": "%"}
    ]}
  ]
}
